# Source: patent publication US11504268B2, “Wound treatment system” (Ethicon, Inc., priority 2018, dated 2022)
# Tested on: S. aureus
# Assay: Vapor-phase triclosan delivery to model wound (inoculated Petri dishes), bacterial growth after incubation
# Format: cell-based
# Conditions: for Bacterial Growth after 37° C. incubation; Exposure to wound treatment system: 3 hr / Bacterial Growth after 37° C. incubation; Exposure to wound treatment system: Additional 17 hr: inoculated
# Procedure: The experimental data were obtained with a model air-activated heating elements (7 Hour Hand Warmers, Grabber, Grand Rapids, Mich.) surrounding a model wound represented by inoculated Petri dishes with 5 ml of 45C TSA agar containing about 6 log CFU/ml S. aureus. For testing, from 1 to 8 triclosan strips, each containing 9 mg of triclosan, were positioned on heating elements in proximity to inoculated Petri dishes. The assembly was covered creating an enclosed compartment around the inoculated Petri dishes, with triclosan patches within thusly formed compartment on the heating elements but not in contact with the inoculated Petri dishes. The inoculated Petri dishes were taken out after 3 hr and 17 hour exposure at ambient temperature (of which heating packs provided about 7 hours of heat) and incubated at 37° C. for 24 hr to allow the bacterial colonies, if any, to grow and be evaluated. Controls tested included the same model without any heating elements; heating elements in a system with no triclosan; no heating, no triclosan for confirming inoculation and bacterial growth, no heating no triclosan no inoculation for confirming agar was not contaminated.
smiles,measurement,setting,value
Oc1cc(Cl)ccc1Oc1ccc(Cl)cc1Cl [triclosan],Bacterial Growth after 37° C. incubation; Exposure to wound treatment system: 3 hr,"0 heating elements (no heat), 1 triclosan patch, 3 hr exposure",Full growth
same,Bacterial Growth after 37° C. incubation; Exposure to wound treatment system: Additional 17 hr,"0 heating elements (no heat), 1 triclosan patch, 17 hr exposure",Full
same,Bacterial Growth after 37° C. incubation; Exposure to wound treatment system: 3 hr,"0 heating elements (no heat), 2 triclosan patches, 3 hr exposure",Full growth
same,Bacterial Growth after 37° C. incubation; Exposure to wound treatment system: Additional 17 hr,"0 heating elements (no heat), 2 triclosan patches, 17 hr exposure",Full
same,Bacterial Growth after 37° C. incubation; Exposure to wound treatment system: 3 hr,"0 heating elements (no heat), 4 triclosan patches, 3 hr exposure",Partial
same,Bacterial Growth after 37° C. incubation; Exposure to wound treatment system: Additional 17 hr,"0 heating elements (no heat), 4 triclosan patches, 17 hr exposure",Minimal
same,Bacterial Growth after 37° C. incubation; Exposure to wound treatment system: 3 hr,"0 heating elements (no heat), 8 triclosan patches, 3 hr exposure",partial growth
same,Bacterial Growth after 37° C. incubation; Exposure to wound treatment system: Additional 17 hr,"0 heating elements (no heat), 8 triclosan patches, 17 hr exposure",full antibacterial effect and NONE
same,Bacterial Growth after 37° C. incubation; Exposure to wound treatment system: 3 hr,"4 heating elements, 1 triclosan patch, 3 hr exposure",NONE
same,Bacterial Growth after 37° C. incubation; Exposure to wound treatment system: Additional 17 hr,"4 heating elements, 1 triclosan patch, 17 hr exposure",NONE
same,Bacterial Growth after 37° C. incubation; Exposure to wound treatment system: 3 hr,"4 heating elements, 2 triclosan patches, 3 hr exposure (tests 3 and 4)",NONE
same,Bacterial Growth after 37° C. incubation; Exposure to wound treatment system: Additional 17 hr,"4 heating elements, 2 triclosan patches, 17 hr exposure (tests 3 and 4)",NONE
same,Bacterial Growth after 37° C. incubation; Exposure to wound treatment system: 3 hr,"4 heating elements, 4 triclosan patches, 3 hr exposure",NONE
same,Bacterial Growth after 37° C. incubation; Exposure to wound treatment system: Additional 17 hr,"4 heating elements, 4 triclosan patches, 17 hr exposure",NONE
same,Bacterial Growth after 37° C. incubation; Exposure to wound treatment system: 3 hr,"4 heating elements, 8 triclosan patches (9 mg each), 3 hr exposure",NONE
same,Bacterial Growth after 37° C. incubation; Exposure to wound treatment system: Additional 17 hr,"4 heating elements, 8 triclosan patches (9 mg each), 17 hr exposure",NONE
same,bactericidal effect on S. aureus with vapor transfer of triclosan,"in presence of heat elements, 1 strip of triclosan",full bactericidal effect
same,inhibition of bacterial growth,"tests #1-4, 8: 4 heating elements, from 1 to 8 triclosan patches",full inhibition of bacterial growth
same,antibacterial effect,"without heat elements, most tests",lack of antibacterial effect
